# Test results published in patent US20200239398A1, “METHYLENE-CYCLOALKYLACETATE DERIVATIVES AND THEIR USE IN TREATMENT OF NEUROTROPIC CONDITIONS” (Yissum Research Development Company of The Hebrew …, priority 2018, published 2020).
# Values joined by “and” are separate entries in the source; they are usually repeats but may differ in a detail not shown here. Equal entries are not always repeated. Where two headings read alike, the source gives them in different places.
# Assays:
# [1] = target: T1, N-methyl-D-aspartate (NMDA) Glutamate Receptor 1A/2B (NMDAR (1A/2B)) (Homo sapiens, UniProt Q05586+Q13224); experiment: SAFETYscan NMDAR (1A/2B) Ion channel; format: cell-based; conditions: Blocker mode; 10 μM HU-MCA-13; read-out: Maximal Response
# T1 construct: DiscoverX (SAFETYscan contract panel)
# T1 sequence (Q13224 27-1484, other chains not shown): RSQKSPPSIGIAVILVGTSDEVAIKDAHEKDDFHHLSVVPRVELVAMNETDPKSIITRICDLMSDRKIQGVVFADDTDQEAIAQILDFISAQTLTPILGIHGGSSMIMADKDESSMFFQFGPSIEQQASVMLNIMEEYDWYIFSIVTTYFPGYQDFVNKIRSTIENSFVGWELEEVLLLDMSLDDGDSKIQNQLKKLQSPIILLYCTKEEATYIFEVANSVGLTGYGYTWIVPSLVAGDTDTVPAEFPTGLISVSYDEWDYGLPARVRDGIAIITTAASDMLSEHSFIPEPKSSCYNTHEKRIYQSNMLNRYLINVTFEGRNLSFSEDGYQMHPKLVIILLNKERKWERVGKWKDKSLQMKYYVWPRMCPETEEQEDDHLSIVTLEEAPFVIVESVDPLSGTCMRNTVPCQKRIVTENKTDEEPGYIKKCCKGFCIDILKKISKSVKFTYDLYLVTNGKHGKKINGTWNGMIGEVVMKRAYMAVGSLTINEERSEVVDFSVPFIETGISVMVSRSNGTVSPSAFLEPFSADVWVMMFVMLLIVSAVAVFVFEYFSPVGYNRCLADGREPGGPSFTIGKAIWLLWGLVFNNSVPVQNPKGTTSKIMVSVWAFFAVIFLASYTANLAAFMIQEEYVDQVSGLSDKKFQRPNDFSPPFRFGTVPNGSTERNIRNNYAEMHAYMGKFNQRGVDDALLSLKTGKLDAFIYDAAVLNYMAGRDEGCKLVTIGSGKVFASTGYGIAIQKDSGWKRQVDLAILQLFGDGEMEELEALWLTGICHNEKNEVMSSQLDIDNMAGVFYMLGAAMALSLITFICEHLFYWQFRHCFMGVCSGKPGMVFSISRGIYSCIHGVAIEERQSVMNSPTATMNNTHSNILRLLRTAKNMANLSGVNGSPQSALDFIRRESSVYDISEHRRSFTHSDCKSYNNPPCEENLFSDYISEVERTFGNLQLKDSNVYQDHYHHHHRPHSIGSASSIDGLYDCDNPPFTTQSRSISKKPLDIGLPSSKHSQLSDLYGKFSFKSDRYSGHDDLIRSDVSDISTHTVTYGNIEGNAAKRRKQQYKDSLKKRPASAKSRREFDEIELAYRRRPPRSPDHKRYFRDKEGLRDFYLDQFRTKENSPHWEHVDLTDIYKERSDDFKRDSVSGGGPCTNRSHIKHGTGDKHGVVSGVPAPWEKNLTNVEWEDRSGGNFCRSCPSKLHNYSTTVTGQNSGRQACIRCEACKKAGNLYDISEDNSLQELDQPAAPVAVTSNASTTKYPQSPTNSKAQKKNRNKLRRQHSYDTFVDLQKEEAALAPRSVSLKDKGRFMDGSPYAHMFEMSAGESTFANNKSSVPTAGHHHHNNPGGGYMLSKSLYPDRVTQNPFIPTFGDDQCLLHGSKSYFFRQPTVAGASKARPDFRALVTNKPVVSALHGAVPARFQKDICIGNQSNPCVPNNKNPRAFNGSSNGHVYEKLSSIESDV
# [2] = target: Cholecystokinin Receptor A (CCKAR) (Homo sapiens, UniProt P32238); experiment: SAFETYscan CCKAR Calcium Flux; format: cell-based; conditions: 10 μM HU-MCA-13, read-out: Maximal Response
# Cholecystokinin Receptor A (CCKAR), sequence (P32238 whole entry): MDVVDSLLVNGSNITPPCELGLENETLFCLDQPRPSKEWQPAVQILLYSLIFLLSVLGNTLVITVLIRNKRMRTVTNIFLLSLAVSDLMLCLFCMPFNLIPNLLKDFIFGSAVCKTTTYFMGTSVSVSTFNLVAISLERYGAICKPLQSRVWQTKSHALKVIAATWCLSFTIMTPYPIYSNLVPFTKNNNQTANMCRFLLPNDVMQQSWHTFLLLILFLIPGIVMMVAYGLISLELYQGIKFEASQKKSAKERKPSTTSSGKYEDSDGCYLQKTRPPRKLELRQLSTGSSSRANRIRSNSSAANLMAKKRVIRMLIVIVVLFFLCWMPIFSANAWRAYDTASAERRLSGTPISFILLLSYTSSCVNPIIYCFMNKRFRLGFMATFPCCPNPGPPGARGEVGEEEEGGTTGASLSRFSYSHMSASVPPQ
# [3] = target: Opioid Receptor Mu 1 (OPRM1) (Homo sapiens, UniProt P35372); experiment: cell-based; conditions: 10 μM HU-MCA-13, read-out: Maximal Response
# Opioid Receptor Mu 1 (OPRM1), sequence (P35372 whole entry): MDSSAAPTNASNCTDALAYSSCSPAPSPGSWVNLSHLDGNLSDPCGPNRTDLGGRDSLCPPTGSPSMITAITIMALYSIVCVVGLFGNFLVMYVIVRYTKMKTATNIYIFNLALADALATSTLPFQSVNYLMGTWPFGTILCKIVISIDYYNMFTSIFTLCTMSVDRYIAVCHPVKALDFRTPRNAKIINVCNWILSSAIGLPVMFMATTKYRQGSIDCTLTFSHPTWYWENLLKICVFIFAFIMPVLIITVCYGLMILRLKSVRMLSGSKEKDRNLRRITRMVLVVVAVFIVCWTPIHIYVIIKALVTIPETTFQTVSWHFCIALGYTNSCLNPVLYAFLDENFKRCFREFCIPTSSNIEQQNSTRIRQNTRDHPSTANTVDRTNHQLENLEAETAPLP
# [4] = system: spinal cord motor neurons; experiment: Neurite outgrowth in adult rat spinal cord primary cultures; format: cell-based; conditions: 10 μM HU-MCA-13 for 7 days
# Protocol: To study the effect of HU-MCA-13 on adult rat spinal cord primary cultures in vitro, a purification procedure was developed that yields highly enriched motor neurons cultures. Spinal cord motor neuron cultures are an important tool for the study of mechanisms involved in motor neuron survival, degeneration and regeneration, motor neuron disorders such as amyotrophic lateral sclerosis or spinal muscular atrophy as well as in spinal cord injury. This bioassay was performed using vehicle (1% DMSO) DMEM negative control and 10 μM HU-MCA-13, tested compound. Briefly, dissected pieces of adult rat spinal cord tissue were maintained in phosphate-buffered saline (PBS) without Ca^2+ and Mg^2+ and pooled together and transferred to an enzymatic dissociation media containing 20 IU/ml papain in Earle's balanced salt solution (Worthington Biochemical, Freehold, N.J.) and incubated for 30 min at 37° C. After enzymatic dissociation, the papain solution was aspirated and the tissue was mechanically triturated with a fire-polished Pasteur pipette in complete media [Neurobasal Medium with B-27 supplement (Gibco, Grand Island, N.Y.), 100 IU/ml penicillin, […], 3.3 μg/ml aphidicolin, 0.5 mM glutamate] containing 2000 IU/ml DNase and 10-mg/ml protease inhibitors. Single-cell suspensions in complete media was plated on pre-coated collagen IV/laminin mixture-coated 96-well plates (Becton-Dickinson, Bedford, Mass.) at a density of 1.0×10^4 cells/well. The spinal cord motor neurons (red arrows) and accessory Schwann cells (orange) were maintained for one day in culture and then exposed to 1% DMSO-DMEM negative control or 10 μM HU-MCA-13 for 7 days. The cultures were photographed, and Image analysis was performed. Neurite outgrowth was measured and quantified as for PC12 cultures, focusing on two parameters: a. SUM-total area covered by neurite outgrowths; b. mean length of a neurite (microns).
# male C57BL/6 mice = experiment: Sensory motor/neurological-neurobehavioral tests (mNSS); format: in vivo; conditions: 250 mg/kg iv; for Angle of increase / Beam balance (score) / Hind limb (placing test score) / mNSS / Foot fault / Self-suspension time: individual animal; for Foot fault / Self-suspension time: listed as HU-MCA-13, 250 mg/kg
# Protocol: This pilot study was conducted to obtain acute information of the dose toxicity of HU-MCA-13 (Compound 13 in Scheme 1) in male mice. Male C57BL/6 mice, were injected intravenously with 0.2 ml of HU-MCA-13 in a dose of 250 mg/kg. Mice were monitored for 4 consecutive weeks for autonomic and neurotoxicity symptoms. The mortality and changes on body weight, clinical signs, gross observation, were monitored up to 30 days after treatment. No mortality was found at this high dose of 250 mg/kg. […] The mice were examined once a week for autonomic symptoms by measuring salivation, urinary delivery, pupillary constriction, heart rate, blood pressure, and hair contraction. […] Occurrences of either flaccid or spastic paralysis of the legs were not observed. […] Furthermore, no mice sudden deaths occurred within 24 hours after the injection or during the 4 weeks of observation. […] Sensory motor tests were scored individually and according to the modified neurologic function severity score (mNSS). The data from each individual test and the total score calculated from individual tests that make up the mNSS were measured. The following assays were used: a. beam balance test—mice were placed on a 1-inch wide beam for 60 seconds. A normal response is balance with steady posture for 60 seconds (a score of 0). Deficits are scored if the rat: grasps the side of the beam (a score of 1), hugs the beam and one limb falls down from the beam (a score of 2), hugs the beam and two limbs fall off the beam (a score of 3), attempts to balance on the beam, but falls off from 60 seconds (a score of 4), attempts to balance on the beam but falls off from […], or falls off with no attempt to balance or hang on the beam in <20 seconds (a score of 6); b. foot fault test—forelimb movement dysfunction, while walking on elevated metal grids, was monitored. The animal was placed on horizontal grids (85.5×26.5×20) cm with a glass enclosure for observation. With each weight bearing step, the forelimb can fall or slip between the metal support bars, an event recorded as a foot fault. The total number of forelimb steps and the total number of foot faults were recorded. The percentage of forelimb foot faults to the total steps that occurred within 2 minutes marks the test results; c. hind limb placing test—This test monitors reposition of hind limbs placed down and away from the table edge. The ability to retrieve and place the hind limbs back onto the table was scored. Immediate and complete limb retrieval was scored 0, delayed (>2 seconds) limb retrieval and/or interspersed flailing was scored 1, and no limb retrieval was scored 2; d. Increasing platform angle to slide test—This test monitors the strength and stability of resistance to slide down an inclined platform. It deploys a clean wooden board (60 cm by 40 cm) positioned horizontally. Mice were placed on the board with head facing up the increasing incline. The board then swings to increase the degree of inclination the rat experiences until slipping down the board feet first. The degree of the angle at which the rat relinquishes their grip/stance on the board (slips down) constitute the test results; e. the forelimb whole body suspension test—The test measures grip strength by duration of suspension by forepaws. The rat is suspended on a metal bar (diameter 5 mm) which it tightly holds onto by its forelimbs. The time (seconds) during which each rat could sustain its body weight while holding onto the bar is recorded. The mice drop from the bar onto soft material with no harm. The test was repeated three times and a mean result per rat was used as the score. Cumulatively these sensory motor/neurological findings indicate acute tolerability of 250 mg/kg HU-MCA-13 iv injection in Male C57BL/6 mice.
# [5] = target: 5-Hydroxytryptamine (Serotonin) Receptor 2B (HTR2B) (Homo sapiens, UniProt P41595); experiment: SAFETYscan HTR2B Calcium Flux; format: cell-based; conditions: 10 μM HU-MCA-13, read-out: Maximal Response
# 5-Hydroxytryptamine (Serotonin) Receptor 2B (HTR2B), sequence (P41595 whole entry): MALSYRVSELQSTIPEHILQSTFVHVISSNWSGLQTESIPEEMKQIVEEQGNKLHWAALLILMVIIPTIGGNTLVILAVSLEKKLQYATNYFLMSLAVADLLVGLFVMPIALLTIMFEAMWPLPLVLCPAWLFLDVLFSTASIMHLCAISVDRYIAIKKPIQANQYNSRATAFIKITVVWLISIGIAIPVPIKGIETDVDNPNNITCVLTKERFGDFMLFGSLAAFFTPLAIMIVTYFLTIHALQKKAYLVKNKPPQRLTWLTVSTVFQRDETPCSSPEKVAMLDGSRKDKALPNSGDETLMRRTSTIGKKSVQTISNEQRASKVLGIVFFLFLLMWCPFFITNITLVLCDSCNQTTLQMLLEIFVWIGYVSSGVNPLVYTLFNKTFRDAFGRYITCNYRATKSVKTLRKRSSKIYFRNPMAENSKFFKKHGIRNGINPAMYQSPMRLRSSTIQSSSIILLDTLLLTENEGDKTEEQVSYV
compound,measurement,setting,value
C=CCC1CCC[C@@H](CCC(=O)O)C1=C (some centres unmarked) [Compound 13],Emax,[1],0%
same,Emax,[2]; Agonist mode,1.56%
same,Emax,[2]; Antagonist mode,0%
same,Emax,"[3]; OPRM1, Agonist mode",9.31%
same,Emax,"[3]; OPRM1, Antagonist mode",0.38%
same,mean length of the neurite,[4],350 micrometer
same,neurotropic effect versus control medium,[4],four folds neurotropic effect
same,total (SUM) neurite length,[4],600 micrometer
same,sensory motor/neurological performance,male C57BL/6 mice; weekly routine motor tests,no neurological losses were observed
same,Angle of increase,male C57BL/6 mice; Day 0,35 degrees
same,Beam balance (score),male C57BL/6 mice; Day 0,0
same,Hind limb (placing test score),male C57BL/6 mice; Day 0,0
same,mNSS,male C57BL/6 mice; Day 0,0
same,Foot fault,male C57BL/6 mice; Day 0,0/34 and 0/41 and 0/38 and 1/48
same,Self-suspension time,male C57BL/6 mice; Day 0,8 seconds and 10 seconds (2×) and 9 seconds
same,Angle of increase,male C57BL/6 mice; Day 1,35 degrees
same,Beam balance (score),male C57BL/6 mice; Day 1,0
same,Hind limb (placing test score),male C57BL/6 mice; Day 1,0
same,mNSS,male C57BL/6 mice; Day 1,0
same,Foot fault,male C57BL/6 mice; Day 1,0/20 and 0/15 and 0/34 and 0/14
same,Self-suspension time,male C57BL/6 mice; Day 1,14 seconds and 12 seconds (2×) and 15 seconds
same,Angle of increase,male C57BL/6 mice; Day 5,35 degrees
same,Beam balance (score),male C57BL/6 mice; Day 5,0
same,Hind limb (placing test score),male C57BL/6 mice; Day 5,0
same,mNSS,male C57BL/6 mice; Day 5,0
same,Foot fault,male C57BL/6 mice; Day 5,2/50 and 1/47 and 0/48 and 0/36
same,Self-suspension time,male C57BL/6 mice; Day 5,13 seconds (2×) and 15 seconds and 14 seconds
same,Emax,[5]; Agonist mode,0%
same,Emax,[5]; Antagonist mode,0.13%
